The text below walks through data of ChEMBL document CHEMBL4480444, “Structural requirement of tunicamycin V for MraY inhibition” (Bioorg Med Chem, 2019).

A value given as a limit tells only on which side of the number the result lay.

The assay deals with T1, Phospho-N-acetylmuramoyl-pentapeptide-transferase (Staphylococcus aureus, UniProt P0C1R8).
T1 sequence (P0C1R8 whole entry): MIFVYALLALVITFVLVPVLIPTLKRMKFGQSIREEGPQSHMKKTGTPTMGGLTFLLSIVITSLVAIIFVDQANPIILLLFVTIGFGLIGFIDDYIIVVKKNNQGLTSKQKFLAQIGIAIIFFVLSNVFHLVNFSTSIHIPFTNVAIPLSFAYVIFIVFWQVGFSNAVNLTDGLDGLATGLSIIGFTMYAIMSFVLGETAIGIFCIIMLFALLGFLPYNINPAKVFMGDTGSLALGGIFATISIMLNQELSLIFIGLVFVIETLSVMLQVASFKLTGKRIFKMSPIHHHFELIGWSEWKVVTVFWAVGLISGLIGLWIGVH
Description: Inhibition of Staphylococcus aureus MraY assessed as reduction in dansylated lipid I formation using UDP-MurNAc-dansylpentapeptide incubated for 3 hrs by fluorescence assay.
With `CC(=O)N[C@H]1[C@@H](O[C@@H]2O[C@H](CO)[C@H](O)[C@H](O)[C@H]2NC(=O)/C=C/CCCCCCCCCC(C)C)O[C@H](CO)[C@@H](O)[C@@H]1O`, the half-maximal inhibitory concentration (IC50) (in general, the concentration at which inhibition is half-maximal) is above 100 µM.

For `CC(C)CCCCCCCCC/C=C/C(=O)N[C@H]1C(O)O[C@H](C[C@@H](O)[C@H]2O[C@@H](n3ccc(=O)[nH]c3=O)[C@H](O)[C@@H]2O)[C@H](O)[C@@H]1O` (stereo not given in full), the concentration for half-maximal inhibition (IC50) turned out to be 36 µM.

For the compound `CC(=O)N[C@H]1[C@@H](O[C@@H]2O[C@H](C[C@@H](O)[C@H]3O[C@@H](n4ccc(=O)[nH]c4=O)[C@H](O)[C@@H]3O)[C@H](O)[C@H](O)[C@H]2NC(=O)/C=C/CCCCCCCCCC(C)C)O[C@H](CO)[C@@H](O)[C@@H]1O` (stereo in doubt; form 1), the IC50 was determined as 0.25 µM.

Consider `CC(=O)N[C@H]1[C@H](O[C@H]2O[C@H](CO)[C@@H](O)[C@H](O)[C@H]2NC(C)=O)O[C@H](C[C@@H](O)[C@H]2O[C@@H](n3ccc(=O)[nH]c3=O)[C@H](O)[C@@H]2O)[C@H](O)[C@@H]1O`, for which the concentration for half-maximal inhibition (IC50) turned out to be 36 µM.

For the compound `CC(=O)N[C@H]1[C@@H](O[C@@H]2O[C@H](C[C@@H](O)[C@H]3O[C@@H](n4ccc(=O)[nH]c4=O)[C@H](O)[C@@H]3O)[C@H](O)[C@H](O)[C@H]2NC(=O)/C=C/CCCCCCCCCC(C)C)O[C@H](CO)[C@@H](O)[C@@H]1O` (stereo in doubt; form 2), the IC50 was 0.35 µM.
